Measured values reported in patent US5521315A, “Olefin substituted long chain compounds” (priority 1993, dated 1996).
pIC50: −log10 of the molar value. “And” between values parts separate entries of the source, which are not always exact repeats. Identical values can stand only once.

What was measured:
[1] = system: transformed cells (Ras 3T3) and normal 3T3 cells; experiment: Cytotoxicity in transformed cells (Ras 3T3) versus normal 3T3 cells; type: cell-based; conditions: LD50 comparison; FIG. 17
Experimental: Each inventive compound is investigated for cytotoxicity to determine appropriate doses for biological activity assays and to prevent cytotoxic reactions in in vitro assays when characterizing activity. Cells (e.g., NIH-3T3, Ras transformed 3T3 cells, malignant melanoma LD2 cells, etc.) are added to microtiter plates and drug is added about two days after plating. Cell viability is determined using a fluorescent viability stain (e.g., 2',7'-bis-(2-carboroxyethyl)-5-(and -6)-carboxyfluorescein acetoxymethyl ester, BCECF excitation 488 nm and emission 525 nm) 24, 48 or 72 hours after addition of the drug.
This example illustrates a comparison of cytotoxicity determinations for CT1534 and CT1539 in transformed cells (Ras 3T3) and in normal 3T3 cells to determine the in vitro LD50 value in both cell types and to look for differential cytotoxicity effects between the cell types.

mast cell degranulation = experiment: Serotonin release assay (inhibition of mast cell degranulation); type: cell-based; parameters: INCORP / TOTAL: unit not given here; conditions: 50 μM; for RELEASE-SPONT: average corrected for spontaneous release; for AVERAGE % RELEASE: average of duplicates; for inhibition at 50 µM: Mast cell; for % RELEASE / INCORP / RELEASE / RELEASE X2 / TOTAL: duplicate wells
How it was run: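 Cultured mast cells loaded with 3H-serotonin and sensitized with anti-DNP IgE for 18 h at 37 °C, then triggered with 40 ng/ml DNP-BSA for 45 min with compound in PIPES isotonic buffer pH 7.1.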

[2] = system: CMV promoter activity in transformed (adenovirus) cells; experiment: CMV promoter assay (gene transcription and translation; cytotoxicity in transformed cells); type: cell-based
How it was run: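 Reporter assay in adenovirus-transformed cells, reading CMV promoter-driven gene transcription and translation; activity reflects cytotoxic inhibition of cellular protein synthesis machinery.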

[3] = system: second messenger pathway enzymes in P388 cells (murine monocyte/macrophage line); experiment: Changes in lipid mass (DAG, PA) in P388 cells after signal stimulation; type: cell-based; conditions: 30 second time point, FIGS. 20-22
Experimental: FIGS. 20-22 illustrate the effect of one inventive compound (CT1534) on the substates and products of the present second messenger pathway. Various concentrations of CT1534 were incubated with P388 cells (a murine monocyte/macrophage line) and changes in lipid mass determined at 0 time, 30 seconds and 60 seconds after signal stimulation. FIGS. 20-22 show the 30 second time point for two DAG peaks and a PA peak.
This example illustrates the effect of one inventive compound (CT1534) on the substates and products of the present second messenger pathway. Various concentrations of CT1534 were incubated with P388 cells (a murine monocyte/macrophage line) and changes in lipid mass determined at 0 time, 30 seconds and 60 seconds after signal stimulation. FIGS. 20-22 show the 30 second time point for two DAG peaks and a PA peak.

[4] = system: PBMC (peripheral blood mononuclear cells); experiment: Two-way mixed lymphocyte reaction (MLR), proliferation of PBMC to allogeneic stimulation; type: cell-based, human
Source text: Various in vitro assays can be used to measure effects of the inventive compounds to module immune activity and have antitumor activity using a variety of cellular types. For example, a mixed lymphocyte reaction (MLR) provides a valuable screening tool to determine biological activity of each inventive compound. In the MLR, PBMCs (peripheral blood mononuclear cells) are obtained by drawing whole blood from healthy volunteers in a heparinized container and diluted with an equal volume of hanks balanced salt solution (HBSS). This mixture is layered on a […] density gradient, such as a Ficoll-Hypaque® gradient (specific gravity 1.08), and centrifuged at 1000×g for 25 minutes at room temperature or cooler. PBMC are obtained from a band at a plasma-Ficoll interface, separated and washed at least twice in a saline solution, such as HBSS. Contaminating red cells are lysed, such as by ACK lysis for 10 min at 37° C., and the PBMCs are washed twice in HBSS. The pellet of purified PBMCs is resuspended in complete medium, such as RPMI 1640 plus 20% human inactivated serum. Proliferative response of PBMC to allogeneic stimulation is determined in a two-way MLR performed in a 96-well microliter plate. Briefly, approximately 10^5 test purified PBMC cells in […] complete medium are co-cultured with approximately 10^5 autologous (control culture) or allogeneic (stimulated culture) PBMC cells, wherein the allogeneic cells are from HLA disparate individuals. Varying doses of compounds (drug) are added at the time of addition of cells to the microtiter plate. The cultures are incubated for 6 days at 37° C. in a 5% CO2 atmosphere. At the conclusion of the incubation tritiated thymidine is added (for example, […] of 40 to 60 Ci/mmole) and proliferation determined by liquid scintillation counting.
This example illustrates a mixed lymphocyte reaction assay of inventive compounds by showing the IC50 value of each compound in this assay and a dose response of several compounds to illustrate an IC50 determination.

human stromal cells = experiment: PDGF-stimulated proliferation of human stromal cells; type: cell-based; conditions: 50 ng/ml PDGF-BB; drug one hour prior; FIGS. 15 and 16; read-out: IC50, stromal cell proliferation
Experimental: (§1) This assay is an in vitro model for restenosis and treatment of atherosclerosis and coronary artery disease. Stromal cells were starved in serum-free media for one day and then stimulated with 50 ng/ml PDGF-BB. The drugs were added at the indicated concentrations one hour prior to PDGF stimulation. Tritiated thymidine was added for one day at the time of PDGF stimulation and the cells were harvested and counted by liquid scintillation counting 24 hrs later.
Another assay for measuring activity of the inventive compounds involves determining PDGF (platelet derived growth factor) proliferative response using human-derived stromal cells. […] Two to three days later, the stromal cells are starved in serum-free media. Twenty four hours later, the cells are treated with a stimulating agent, such as PDGF-AA, PDGF-BB or basic FGF (fibroblast growth factor) with or without IL-1α or TNF, and tritiated thymidine. Cell proliferation is determined by liquid scintillation counting.
as §1

murine thymocyte = experiment: Murine thymocyte stimulated by ConA and IL-2 (T cell immune suppression); type: cell-based; conditions: FIGS. 8 and 9
Experimental: A thymocyte costimulator assay is conducted to evaluate the inventive compounds to inhibit activation and proliferation of thymocytes caused by stimulation with Con A and interleukin-1 (IL-1), or […]. Thymuses are obtained from mice (e.g., female Balb/C mice) and the thymuses are removed and dissociated into culture media (e.g., RPMI 1640 without serum supplementation). The dissociated thymus tissue and cell suspension is transferred to centrifuge tubes and allowed to settle, washed with HBSS and resuspended in serum-supplemented culture media (e.g., RPMI 1640 with 10% fetal calf serum). Any contaminating red cells are lysed, and viable cells are resuspended and counted. Thymocytes are plated (e.g., 96-well plates at a density of 2×10^5 cells/well) and a stimulating agent, such as Con A, IL-1 (e.g., IL-1α) or IL-2 is added to the well. The cells are incubated for 4 days at 37° C. On the fourth day, the cells are pulsed with tritiated thymidine and cell proliferation determined. Inventive compounds are added at the time of stimulating agent addition.
A third assay measures an ability of an inventive compound to inhibit IL-2-induced proliferation of murine thymocytes. Thymus glands are obtained from 4-6 week old mice and plated as a single cell suspension into flat bottomed wells in RPMI 1640 medium supplemented with 10% fetal calf serum. The inventive compounds are added to appropriate wells and the cells are incubated for 1-2 hrs. Concanavilin A (ConA, 0.25 mg/ml) and […] (20 ng/ml) are added and the plates are incubated for 4 days. Cell proliferation is determined as above.
FIG. 8 compares T cell immune suppression data of thirteen inventive compounds by comparing their IC50 values in a murine thymocyte stimulated by ConA and IL-2 in vitro model.

[5] = system: PBMC in mixed lymphocyte assay culture; experiment: Percent viable cells in mixed lymphocyte assay culture after six days; type: cell-based, human
[6] = system: murine lymph node cell (T cell) proliferation; experiment: Murine lymph node cell proliferation stimulated by antigen; type: cell-based; conditions: Mus musculus, 2 h, drug two hours prior, FIG. 11
Source text: A second immune suppression assay measures a T cell component to the immune reaction. Lymph nodes contain a mixture of cells including T cells, B cells and macrophages. Although the proliferating cells in this assay are T cells, the response is also dependent upon an antigen presenting cell such as a macrophage as well as an elaboration of various immunoregulatory cytokines. Murine T cells will proliferate in vitro in response to a soluble o protein antigen if they are first primed with the antigen in vivo. In vivo priming involves emulsifying the antigen (chicken ovalbumin or OVA) in complete Freunds adjuvant and injecting […] of OVA into both hind footpads of adult Balb/c mice. Fourteen days later the draining lymph nodes (popliteal) are removed and a single cell suspension is prepared in RPMI 1640 supplemented with 10% fetal calf serum. The lymph node cells (200,000) are plated into flat-bottom wells and OVA ([…]) and/or drug is added to appropriate wells and incubated for 5 days. Proliferation is determined and IC50's calculated as above.
This example illustrates the effects of four inventive compounds on inhibition of murine lymph node cell proliferation stimulated by antigen. This assays uses murine T cells that proliferate in vitro in response to a soluble protein antigen that is first used to prime the T cells in vivo. […]

SMILES	differential cytotoxicity, transformed vs normal cells [1]	RELEASE-SPONT (mast cell degranulation; Table 4)	AVERAGE % RELEASE (mast cell degranulation; Table 4)	inhibition at 50 µM (mast cell degranulation; Table 4)	pIC50 [2]	% INHIBITION (mast cell degranulation; Table 4)	% RELEASE (mast cell degranulation; Table 4)	INCORP (mast cell degranulation; Table 4)	RELEASE (mast cell degranulation; Table 4)	RELEASE X2 (mast cell degranulation; Table 4)	TOTAL (mast cell degranulation; Table 4)	% INHIBITION (mast cell degranulation; Table 5)	pIC50 (human stromal cells)	T cell immune suppressing activity (murine thymocyte)	also measured
C=CCCCCCn1c(=O)c2c(ncn2C)n(C)c1=O [CT1534, 1-(6-heptenyl)-3,7-dimethylxanthine]	much more cytotoxic for the transformed cell than the normal cell	5.47%	22.02%	31.9%	< 3.30										plateau concentration for inhibition of second messenger signaling ([3]; DAG and PA peaks): around 10 μM; inhibition of second messenger signaling enzymes [3]: inhibits the enzymes involved in second messenger signaling to an inflammatory stimulus in a dose-response fashion
C=CCCCCCCCCCn1c(=O)c2c(ncn2COC(=O)C(C)(C)C)n(C)c1=O [CT1403, 1-(10-undecenyl)-3-methyl-7-methylpivaloylxanthine]		1.26%	17.82%			84.23%	17.37% and 18.27%	23246 and 25691	2443 and 2872	4886 and 5744	28132 and 31435	84.23%	> 5.00		pIC50 ([4]; FIGS. 3 and 4): 5.00
C=CCCCCn1c(=O)c2c(ncn2C)n(C)c1=O [CT1539, 1-(5-hexenyl)-3,7-dimethylxanthine]	equally cytotoxic for both cell types	5.15%	21.71%	35.8%	< 3.30										
C=CCCCCCCCn1c(=O)c2c(ncn2COC(=O)C(C)(C)C)n(C)c1=O [CT1411, 1-(8-nonenyl)-3-methyl-7-methylpivaloylxanthine]		0.97%	17.53%			87.89%	16.79% and 18.27%	24627 and 24663	2484 and 2756	4968 and 5512	29595 and 30175	87.89%	> 5.00	potent immune suppressing activity	
C=CCCCCCCCCn1c(=O)c2c(ncn2C)n(C)c1=O [CT1563, 1-(9-Decenyl)-3,7-dimethylxanthine]		7.43%	23.98%	7.39%	4.30									potent immune suppressing activity	cytotoxicity in mixed lymphocyte assay culture ([5]; 100 μM, six days of culture): the most cytotoxic at 100 μM; therapeutic window ([5]; cytotoxicity at 100 μM vs MLR IC50): significant therapeutic window; mixed lymphocyte reaction activity ([4]; FIGS. 1 and 2): showed activity within dose ranges achievable in vivo; pIC50 [6]: ~4.82
